This note sets out measurements from ChEMBL document CHEMBL1155290, “Synthesis and anti-HIV activity evaluation of 2-(4-(naphthalen-2-yl)-1,2,3-thiadiazol-5-ylthio)-N-acetamides as novel non-nucleoside HIV-1 reverse transcriptase inhibitors” (Eur J Med Chem, 2009).

A short description of data set [1]: Cytotoxicity against human MT4 cells as reduction in cell viability after 5 days by MTT assay. The data set is classed as cell-based. (In general: Tetrazolium assays rely on reduction of a dye to a coloured formazan, in cell work by metabolically active cells.)
A short description of data set [2]: Selective index, ratio of CC50 for human MT4 cells to EC50 for HIV1 3B.

The term CC50 denotes the concentration giving 50% cytotoxicity. A high value points to better tolerance by the cells.

With `Cc1cn([C@H]2C[C@H](N=[N+]=[N-])[C@@H](CO)O2)c(=O)[nH]c1=O` [ZIDOVUDINE], the CC50 at 120 h in data set [1] was more than 93.5 µM. Besides, the “Ratio CC50/EC50” value in data set [2] is listed as more than 6192.

On to `Cc1ccnc2c1NC(=O)c1cccnc1N2C1CC1` [NEVIRAPINE], for which, in data set [1], the CC50 at 120 h is more than 15 µM. `O=C1Nc2ccc(Cl)cc2[C@@](C#CC2CC2)(C(F)(F)F)O1` [EFAVIRENZ]: the CC50 at 120 h in data set [1] is more than 6.34 µM. For the same compound, the “Ratio CC50/EC50” value in data set [2] is more than 1434. Taken in the same sequence, the figures for `CC(C)Nc1cccnc1N1CCN(C(=O)c2cc3cc(NS(C)(=O)=O)ccc3[nH]2)CC1` [DELAVIRDINE] were more than 3.83 µM and more than 12.
